Experimental data as given in patent US20220289727A1, “ENZYME INHIBITORS” (KALVISTA PHARMACEUTICALS LIMITED, priority 2019, published 2022).

Key:
[1] = molecular target: T1, Human Factor XIIa (Homo sapiens, UniProt P00748); assay: Determination of FXIIa inhibitory activity in vitro (fluorogenic substrate H-DPro-Phe-Arg-AFC); assay type: biochemical; conditions: 25° C., residual enzyme activity (initial rate)
T1 construct: Human Factor XIIa (Enzyme Research Laboratories) was incubated; purchased Enzyme Research Laboratories
T1 sequence (P00748 373-615 limits assumed): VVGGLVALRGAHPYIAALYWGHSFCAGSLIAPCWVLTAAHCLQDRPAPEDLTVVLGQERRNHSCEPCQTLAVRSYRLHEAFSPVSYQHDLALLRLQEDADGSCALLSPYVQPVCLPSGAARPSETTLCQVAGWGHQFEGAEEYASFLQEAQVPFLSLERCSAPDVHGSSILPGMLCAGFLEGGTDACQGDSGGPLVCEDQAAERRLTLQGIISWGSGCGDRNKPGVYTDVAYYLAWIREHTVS
T1 sequence (P00748 20-372 partner limits assumed): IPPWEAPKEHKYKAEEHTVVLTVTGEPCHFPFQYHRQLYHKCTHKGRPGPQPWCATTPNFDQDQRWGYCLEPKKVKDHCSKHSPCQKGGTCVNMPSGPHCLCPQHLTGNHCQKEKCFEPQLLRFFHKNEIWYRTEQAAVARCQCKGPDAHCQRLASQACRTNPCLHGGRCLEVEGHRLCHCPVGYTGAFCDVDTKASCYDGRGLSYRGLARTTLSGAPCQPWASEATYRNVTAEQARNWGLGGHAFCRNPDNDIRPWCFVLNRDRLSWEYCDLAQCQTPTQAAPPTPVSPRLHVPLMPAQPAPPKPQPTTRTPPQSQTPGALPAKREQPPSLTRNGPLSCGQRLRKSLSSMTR

[2] = molecular target: T2, Human FXIa (Homo sapiens, UniProt P03951); assay: Determination of FXIa inhibitory activity in vitro (fluorogenic substrate Z-Gly-Pro-Arg-AFC); assay type: biochemical; conditions: selectivity, 25° C., residual enzyme activity (initial rate)
T2 construct: Human FXIa (Enzyme Research Laboratories) was incubated; purchased Enzyme Research Laboratories
T2 sequence (P03951 388-625 limits assumed): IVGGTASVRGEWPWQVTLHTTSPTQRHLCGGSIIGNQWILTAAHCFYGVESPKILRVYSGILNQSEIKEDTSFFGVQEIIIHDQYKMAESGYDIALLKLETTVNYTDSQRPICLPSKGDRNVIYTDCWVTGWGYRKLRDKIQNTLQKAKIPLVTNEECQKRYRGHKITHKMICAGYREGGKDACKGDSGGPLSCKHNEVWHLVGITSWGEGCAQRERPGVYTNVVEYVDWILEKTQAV
T2 sequence (P03951 19-387 partner limits assumed): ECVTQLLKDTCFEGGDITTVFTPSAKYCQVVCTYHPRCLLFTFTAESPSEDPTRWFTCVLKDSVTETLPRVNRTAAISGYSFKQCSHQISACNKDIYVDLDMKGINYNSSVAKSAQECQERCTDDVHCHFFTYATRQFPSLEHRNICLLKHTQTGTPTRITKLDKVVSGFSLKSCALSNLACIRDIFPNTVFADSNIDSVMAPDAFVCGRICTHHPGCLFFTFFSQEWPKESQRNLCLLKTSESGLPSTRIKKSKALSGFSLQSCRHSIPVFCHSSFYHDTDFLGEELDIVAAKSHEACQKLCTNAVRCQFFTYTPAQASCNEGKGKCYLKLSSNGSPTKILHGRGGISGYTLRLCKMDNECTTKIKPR

Compound | IC50 [1] [µM] | IC50 [2] [µM]
Nc1nccc2cc(CNC(=O)c3cc(Cl)c(CN4CCN(c5ccccn5)CC4)s3)ccc12 [Example 5.17] | 10 to 40 | > 40
Nc1nccc2cc(CNC(=O)c3cc(Cl)c(CN4CC[C@@H](Nc5cccnc5)C4)s3)ccc12 [Example 5.18, N-[(1-Amino-6-isoquinolyl)methyl]-4-chloro-5-[[(3R)-3-(3-pyridylamino)pyrrolidin-1-yl]methyl]thiophene-2-carboxamide] | 10 to 40 | 37.7
Cc1cc(C(=O)NCc2ccc3c(N)nccc3c2)sc1CN1CCN(c2ccncc2)CC1 [Example 5.20, N-[(1-Amino-6-isoquinolyl)methyl]-4-methyl-5-[[4-(4-pyridyl)piperazin-1-yl]methyl]thiophene-2-carboxamide] | 10 to 40 | > 40
Nc1nccc2cc(CNC(=O)c3cc(Cl)c(CN4CC[C@H](Nc5cccnc5)C4)s3)ccc12 [Example 5.21] | 10 to 40 | > 40
Nc1nccc2c1CC[C@H]2NC(=O)c1cc(Cl)c(CN2CCN(c3ccncc3)CC2)s1 [Example 5.23, N-[(5R)-1-Amino-6,7-dihydro-5H-cyclopenta[c]pyridin-5-yl]-4-chloro-5-[[4-(4-pyridyl)piperazin-1-yl]methyl]thiophene-2-carboxamide] | 10 to 40 | 8.35
Cc1cc(C(=O)NCc2ccc3c(N)nccc3c2)sc1CN1CC(Oc2ccncc2)C1 [Example 5.25, N-[(1-Amino-6-isoquinolyl)methyl]-4-methyl-5-[[3-(4-pyridyloxy)azetidin-1-yl]methyl]thiophene-2-carboxamide] | 10 to 40 | > 40
Cc1cc(C(=O)NCc2ccc3c(N)nccc3c2)sc1CN1CCN(c2ccncn2)CC1 [Example 5.26, N-((1-Aminoisoquinolin-6-yl)methyl)-4-methyl-5-((4-(pyrimidin-4-yl)piperazin-1-yl)methyl) thiophene-2-carboxamide] | 10 to 40 | > 40
Cc1cc(C(=O)NCc2ccc3c(N)nccc3c2)sc1CN1CCN(c2ccn(C)c(=O)c2)CC1 [Example 5.27] | 10 to 40 | > 40
Cc1cc(C(=O)NCc2ccc3c(N)nccc3c2)sc1CN1CCN(c2cnn(C)c2)CC1 [Example 5.28] | 10 to 40 | > 40
Cc1cc(C(=O)NCc2ccc3c(N)nccc3c2)sc1CN1CCN(c2cc[nH]c(=O)c2)CC1 [Example 5.29] | 10 to 40 | 38.5
Nc1nccc2cc(CNC(=O)c3cc(Cl)c(Cc4ccccc4)s3)ccc12 [Example 25.08] | 10 to 40 | > 40
CN1CCC(c2ccc(C(=O)NCc3ccc4c(N)nccc4c3)s2)CC1 [Example 25.09] | 10 to 40 | > 40
CN1CCC(Cn2c(C(=O)NCc3ccc4c(N)nccc4c3)cc3ccccc32)CC1 [Example 25.201] | 3 to 10 | > 40
CCN1CCC(Cn2c(C(=O)NCc3ccc4c(N)nccc4c3)nc3ccccc32)CC1 [Example 25.202] | 1 to 3 | > 40
Cc1n[nH]c(C(=O)NCc2ccc3c(N)nccc3c2)c1NCC1CCN(C)CC1 [Example 26.02] | 10 to 40 | > 40
Cc1cc(OCC2CCN(C)CC2)c(C(=O)NCc2ccc3c(N)nccc3c2)s1 [Example 26.04] | 10 to 40 | > 40
Cc1csc(C(=O)NCc2ccc3c(N)nccc3c2)c1NC(=O)C1CCN(C)CC1 [Example 26.07] | 10 to 40 | > 40
CC(C)(C)OC(=O)N1CCC(Cn2nc(Cl)cc2C(=O)NCc2ccc3c(N)nccc3c2)CC1 [Example 35.01] | 10 to 40 | > 40
CCN1CCC(Cn2nc(Cl)cc2C(=O)NCc2ccc3c(N)nccc3c2)CC1 [Example 35.03] | 3 to 10 | > 40

Results, then the compound that gave them:

IC50 [1] [µM] | IC50 [2] [µM] | Compound
1 to 3 | 76.4 | Nc1nccc2cc(CNC(=O)c3cc(Cl)c(CNCC4CCN(c5ccncc5)CC4)s3)ccc12 [Example 2.36, N-[(1-Aminoisoquinolin-6-yl)methyl]-4-chloro-5-[({[1-(pyridin-4-yl)piperidin-4-yl]methyl}amino)methyl]thiophene-2-carboxamide]
3 to 10 | > 40 | Nc1nccc2cc(CNC(=O)c3cc(Cl)c(CNCc4ccc(N5CCCC5=O)cc4)s3)ccc12 [Example 2.58]
3 to 10 | > 40 | Nc1nccc2cc(CNC(=O)c3cc(Cl)c(CN4CCN(c5ccncc5)CC4)s3)ccc12 [Example 5.12]
3 to 10 | > 40 | Nc1nccc2cc(CNC(=O)c3cc(Cl)c(CN4CCN(c5cccnc5)CC4)s3)ccc12 [Example 5.16]
3 to 10 | 29.3 | Nc1nccc2cc(CNC(=O)c3cc(Cl)c(CN4Cc5ccncc5C4)s3)ccc12 [Example 5.19]
3 to 10 | > 40 | Nc1nccc2cc(CNC(=O)c3cc(Cl)c(CN4CCc5ccncc5C4)s3)ccc12 [Example 5.22]
3 to 10 | > 40 | Cc1cc(C(=O)NCc2ccc3c(N)nccc3c2)sc1CN1CCCN(c2ccncc2)CC1 [Example 5.24, N-((1-Aminoisoquinolin-6-yl)methyl)-4-methyl-5-((4-(pyridin-4-yl)-1,4-diazepan-1-yl)methyl) thiophene-2-carboxamide]
1 to 3 | > 40 | CNS(=O)(=O)c1sc(C(=O)NCc2ccc3c(N)nccc3c2)cc1Br [Example 25.07]
3 to 10 | > 40 | CN1CCC(Cc2sc(C(=O)NCc3ccc4c(N)nccc4c3)cc2Cl)CC1 [Example 25.10]
3 to 10 | > 40 | Cc1cc(CN)cc(C)c1CNC(=O)c1cc(Cl)c(C)s1 [Example 25.102, N-(4-(Aminomethyl)-2,6-dimethylbenzyl)-4-chloro-5-methylthiophene-2-carboxamide]
1 to 3 | > 40 | Nc1nccc2cc(CNC(=O)c3cc4c(Cl)cccc4s3)ccc12 [Example 25.203, N-((1-Aminoisoquinolin-6-yl)methyl)-4-chlorobenzo[b]thiophene-2-carboxamide]
1 to 3 | > 40 | Nc1nccc2cc(CNC(=O)c3cc4c(Cl)cccc4[nH]3)ccc12 [Example 25.207]
3 to 10 | > 40 | CN1CCC(CNc2cnn(C)c2C(=O)NCc2ccc3c(N)nccc3c2)CC1 [Example 26.01]
1 to 3 | > 40 | Cc1cc(NCC2CCN(C)CC2)c(C(=O)NCc2ccc3c(N)nccc3c2)s1 [Example 26.05, N-((1-Aminoisoquinolin-6-yl)methyl)-5-methyl-3-(((1-methylpiperidin-4-yl)methyl)amino) thiophene-2-carboxamide]
1 to 3 | > 40 | Cc1c(Cl)sc(C(=O)NCc2ccc3c(N)nccc3c2)c1NCC1CCN(C)CC1 [Example 26.09]
1 to 3 | > 40 | Cc1sc(C(=O)NCc2ccc3c(N)nccc3c2)c(NCC2CCN(C)CC2)c1Cl [Example 26.10, N-((1-Aminoisoquinolin-6-yl)methyl)-4-chloro-5-methyl-3-(((1-methylpiperidin-4-yl)methyl)amino) thiophene-2-carboxamide]
3 to 10 | > 40 | Nc1nccc2cc(CNC(=O)c3cc(Cl)nn3CC3CCNCC3)ccc12 [Example 35.02]
